Measured values from PubChem BioAssay (NCI).
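These data come from cells grown in 96-well plates and exposed to compound for 48 hours at five concentrations. The concentration for 50% growth inhibition is given as GI50. TGI: concentration producing complete growth inhibition.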

Columns and labels:
Assay in all cases: NCI tumour cell line growth inhibition, 48 h
OVCAR-5 ovarian = test system: OVCAR-5 ovarian
NCI-H460 lung = test system: NCI-H460 lung
RPMI-8226 leukemia = test system: RPMI-8226 leukemia
SR leukemia = test system: SR leukemia
HOP-62 NSCLC = test system: HOP-62 NSCLC
SW-620 colon = test system: SW-620 colon
HCT-116 colon = test system: HCT-116 colon
PC-3 prostate = test system: PC-3 prostate
MALME-3M melanoma = test system: MALME-3M melanoma
SK-MEL-2 melanoma = test system: SK-MEL-2 melanoma
HL-60(TB) leukemia = test system: HL-60(TB) leukemia
OVCAR-8 ovarian = test system: OVCAR-8 ovarian
SNB-75 CNS = test system: SNB-75 CNS
HS 578T breast = test system: HS 578T breast
SK-OV-3 ovarian = test system: SK-OV-3 ovarian
NCI-H23 lung = test system: NCI-H23 lung
UO-31 renal = test system: UO-31 renal
OVCAR-4 ovarian = test system: OVCAR-4 ovarian
ACHN renal = test system: ACHN renal
SK-MEL-28 melanoma = test system: SK-MEL-28 melanoma
MDA-MB-435 = test system: MDA-MB-435
M14 melanoma = test system: M14 melanoma
SNB-19 CNS = test system: SNB-19 CNS
SN12C renal = test system: SN12C renal
NCI-H522 lung = test system: NCI-H522 lung
UACC-62 melanoma = test system: UACC-62 melanoma
MOLT-4 leukemia = test system: MOLT-4 leukemia
U251 CNS = test system: U251 CNS
MDA-MB-231 breast = test system: MDA-MB-231 breast
TK-10 renal = test system: TK-10 renal
DU-145 prostate = test system: DU-145 prostate
CCRF-CEM leukemia = test system: CCRF-CEM leukemia
HOP-92 NSCLC = test system: HOP-92 NSCLC
786-0 renal = test system: 786-0 renal
SK-MEL-5 melanoma = test system: SK-MEL-5 melanoma
MCF7 breast = test system: MCF7 breast
BT-549 breast = test system: BT-549 breast
SF-295 CNS = test system: SF-295 CNS
HCC-2998 colon = test system: HCC-2998 colon
NCI-H226 lung = test system: NCI-H226 lung
SF-268 CNS = test system: SF-268 CNS
A549 NSCLC = test system: A549 NSCLC
SF-539 CNS = test system: SF-539 CNS
EKVX NSCLC = test system: EKVX NSCLC
HT29 colon = test system: HT29 colon
CAKI-1 renal = test system: CAKI-1 renal
COLO 205 colon = test system: COLO 205 colon
A498 renal = test system: A498 renal
OVCAR-3 ovarian = test system: OVCAR-3 ovarian
IGROV1 ovarian = test system: IGROV1 ovarian
HCT-15 colon = test system: HCT-15 colon
RXF 393 renal = test system: RXF 393 renal
K-562 leukemia = test system: K-562 leukemia
UACC-257 melanoma = test system: UACC-257 melanoma
NCI/ADR-RES ovarian = test system: NCI/ADR-RES ovarian
LOX IMVI melanoma = test system: LOX IMVI melanoma

Work on `COc1cc2c(cc1O)CC[C@@H]1[C@@H]2CC[C@]2(C)[C@@H](OCCCN(C)C)CC[C@@H]12` yielded a GI50 (OVCAR-5 ovarian) of 296 nM, a TGI (OVCAR-5 ovarian) of 1140 nM and a GI50 (NCI-H460 lung) of 163 nM. For the same molecule, the TGI (NCI-H460 lung) was 550 nM, the GI50 (RPMI-8226 leukemia) was 126 nM and the TGI (RPMI-8226 leukemia) was 301 nM. The GI50 (SR leukemia) was 120 nM, the TGI (SR leukemia) was 390 nM and the GI50 (HOP-62 NSCLC) was 182 nM. For the same molecule, the TGI (HOP-62 NSCLC) was 728 nM, the GI50 (SW-620 colon) was 160 nM and the TGI (SW-620 colon) was 513 nM. For the same molecule, the GI50 (HCT-116 colon) was 98.1 nM, the TGI (HCT-116 colon) was 381 nM and the GI50 (PC-3 prostate) was 183 nM. It also gave a TGI (PC-3 prostate) of 748 nM, a GI50 (MALME-3M melanoma) of 90.2 nM and a TGI (MALME-3M melanoma) of 194 nM. The GI50 (SK-MEL-2 melanoma) was 76.9 nM, the TGI (SK-MEL-2 melanoma) was 198 nM and the GI50 (HL-60(TB) leukemia) was 96.8 nM. The TGI (HL-60(TB) leukemia) was 203 nM, the GI50 (OVCAR-8 ovarian) was 196 nM and the TGI (OVCAR-8 ovarian) was 733 nM. The GI50 (SNB-75 CNS) was 76.8 nM, the TGI (SNB-75 CNS) was 273 nM and the GI50 (HS 578T breast) was 210 nM. The TGI (HS 578T breast) was 1190 nM, the GI50 (SK-OV-3 ovarian) was 198 nM and the TGI (SK-OV-3 ovarian) was 675 nM. For the same molecule, the GI50 (NCI-H23 lung) was 119 nM, the TGI (NCI-H23 lung) was 552 nM and the GI50 (UO-31 renal) was 224 nM. For the same molecule, the TGI (UO-31 renal) was 860 nM, the GI50 (OVCAR-4 ovarian) was 180 nM and the TGI (OVCAR-4 ovarian) was 871 nM. The GI50 (ACHN renal) was 164 nM, the TGI (ACHN renal) was 527 nM and the GI50 (SK-MEL-28 melanoma) was 102 nM. The TGI (SK-MEL-28 melanoma) was 243 nM, the GI50 (MDA-MB-435) was 89.9 nM and the TGI (MDA-MB-435) was 182 nM. It also gave a GI50 (M14 melanoma) of 93.3 nM, a TGI (M14 melanoma) of 190 nM and a GI50 (SNB-19 CNS) of 303 nM. It also gave a TGI (SNB-19 CNS) of 1060 nM, a GI50 (SN12C renal) of 304 nM and a TGI (SN12C renal) of 1080 nM. For the same molecule, the GI50 (NCI-H522 lung) was 99.9 nM, the TGI (NCI-H522 lung) was 248 nM and the GI50 (UACC-62 melanoma) was 110 nM. The TGI (UACC-62 melanoma) was 269 nM, the GI50 (MOLT-4 leukemia) was 145 nM and the TGI (MOLT-4 leukemia) was 555 nM. For the same molecule, the GI50 (U251 CNS) was 126 nM, the TGI (U251 CNS) was 334 nM and the GI50 (MDA-MB-231 breast) was 104 nM. It also gave a TGI (MDA-MB-231 breast) of 219 nM, a GI50 (TK-10 renal) of 154 nM and a TGI (TK-10 renal) of 496 nM. The GI50 (DU-145 prostate) was 161 nM, the TGI (DU-145 prostate) was 603 nM and the GI50 (CCRF-CEM leukemia) was 178 nM. The TGI (CCRF-CEM leukemia) was 556 nM, the GI50 (HOP-92 NSCLC) was 112 nM and the TGI (HOP-92 NSCLC) was 473 nM. For the same molecule, the GI50 (786-0 renal) was 90.5 nM, the TGI (786-0 renal) was 201 nM and the GI50 (SK-MEL-5 melanoma) was 83.3 nM. For the same molecule, the TGI (SK-MEL-5 melanoma) was 154 nM, the GI50 (MCF7 breast) was 148 nM and the TGI (MCF7 breast) was 439 nM. It also gave a GI50 (BT-549 breast) of 116 nM, a TGI (BT-549 breast) of 394 nM and a GI50 (SF-295 CNS) of 98 nM. For the same molecule, the TGI (SF-295 CNS) was 208 nM, the GI50 (HCC-2998 colon) was 130 nM and the TGI (HCC-2998 colon) was 346 nM. For the same molecule, the GI50 (NCI-H226 lung) was 617 nM, the TGI (NCI-H226 lung) was 1570 nM and the GI50 (SF-268 CNS) was 182 nM. For the same molecule, the TGI (SF-268 CNS) was 801 nM, the GI50 (A549 NSCLC) was 165 nM and the TGI (A549 NSCLC) was 650 nM. For the same molecule, the GI50 (SF-539 CNS) was 86.7 nM, the TGI (SF-539 CNS) was 172 nM and the GI50 (EKVX NSCLC) was 208 nM. For the same molecule, the TGI (EKVX NSCLC) was 958 nM, the GI50 (HT29 colon) was 96.9 nM and the TGI (HT29 colon) was 233 nM. For the same molecule, the GI50 (CAKI-1 renal) was 271 nM, the TGI (CAKI-1 renal) was 904 nM and the GI50 (COLO 205 colon) was 268 nM. The TGI (COLO 205 colon) was 1030 nM, the GI50 (A498 renal) was 278 nM and the TGI (A498 renal) was 901 nM. The GI50 (OVCAR-3 ovarian) was 155 nM, the TGI (OVCAR-3 ovarian) was 543 nM and the GI50 (IGROV1 ovarian) was 523 nM. The TGI (IGROV1 ovarian) was 1430 nM, the GI50 (HCT-15 colon) was 125 nM and the TGI (HCT-15 colon) was 558 nM. The GI50 (RXF 393 renal) was 88.9 nM, the TGI (RXF 393 renal) was 226 nM and the GI50 (K-562 leukemia) was 100 nM. For the same molecule, the TGI (K-562 leukemia) was 331 nM, the GI50 (UACC-257 melanoma) was 104 nM and the TGI (UACC-257 melanoma) was 206 nM. The GI50 (NCI/ADR-RES ovarian) was 133 nM, the TGI (NCI/ADR-RES ovarian) was 440 nM and the GI50 (LOX IMVI melanoma) was 90.6 nM. It also gave a TGI (LOX IMVI melanoma) of 173 nM.
